ED300 data for three substances are collected here from patent publication US4749782A, “Vasopressin compounds” (Smithkline Beckman Corporation, priority 1986, dated 1988).

The target of the assay is T1, V2 -vasopressin receptors (Rattus norvegicus, UniProt Q00788).
T1 construct: from tissue; host or cells: whole animal (hydropenic rat)
The experiment in a line: in vivo diuretic activity in the hydropenic rat. As to conditions: measure of V2 antagonism. On the procedure:
Antagonistic activity at the V2 -vasopressin receptors is determined in a protocol which determines in vivo diuretic activity in the hydropenic rat (ED300 μg/kg). This procedure is described in the literature: F. Stassen et al., 1st International Conference on Diuretics, Miami, FL., March (1984).

T1 sequence (Q00788 whole entry): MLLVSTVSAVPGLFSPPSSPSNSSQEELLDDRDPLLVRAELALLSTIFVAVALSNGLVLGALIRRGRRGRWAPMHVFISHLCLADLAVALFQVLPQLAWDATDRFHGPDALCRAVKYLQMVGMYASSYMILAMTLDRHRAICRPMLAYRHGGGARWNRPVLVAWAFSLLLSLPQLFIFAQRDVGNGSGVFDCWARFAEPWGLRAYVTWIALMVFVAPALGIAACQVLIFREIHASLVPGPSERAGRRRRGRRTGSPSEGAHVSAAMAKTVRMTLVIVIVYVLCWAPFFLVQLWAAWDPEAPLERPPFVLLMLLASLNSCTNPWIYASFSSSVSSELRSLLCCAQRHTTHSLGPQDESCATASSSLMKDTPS

As for “[1-(β,β-diethyl β-mercaptopropionic acid)-2-(O-ethyl-D-tyrosine)-4-valine-8-arginine-9-desglycine]-vasopressin [Compound B]”, the ED300 is 0.0119 mg/kg.

“[1-(β,β-diethyl-β-mercaptopropionic acid)-2-(O-ethyl-L-tyrosine)-4-valine-8-arginine] vasopressin [Compound C]” came in with an ED300 of 0.1205 mg/kg.

“[1-(β,β-dimethyl-β-mercaptopropionic acid)-2-(O-ethyl-D-tyrosine)-4-valine-8-arginine]vasopressin [Compound D, reference compound]” returned an ED300 of 4.95 mg/kg.
